# Results from US20240376091A1, “THIADIAZOLEAMIDE DERIVATIVES AND THEIR APPLICATIONS” (ZHEJIANG UNIVERSITY, priority 2021, published 2024).
# Changes are numbered by the printed parent chain.
# Columns and labels:
# FL-AR^WT = biological target: T1, FL-AR^WT (Homo sapiens, UniProt P10275); assay: Luciferase reporter assay in PC3 cells, wild type AR; type: cell-based; conditions: read-out: IC50 toward FL-AR^WT
# T1 construct: toward full-length (FL)-AR^WT and FL-AR^V684A; expressed in transfected cells; host or cells: PC3
# T1 sequence (P10275 1-920): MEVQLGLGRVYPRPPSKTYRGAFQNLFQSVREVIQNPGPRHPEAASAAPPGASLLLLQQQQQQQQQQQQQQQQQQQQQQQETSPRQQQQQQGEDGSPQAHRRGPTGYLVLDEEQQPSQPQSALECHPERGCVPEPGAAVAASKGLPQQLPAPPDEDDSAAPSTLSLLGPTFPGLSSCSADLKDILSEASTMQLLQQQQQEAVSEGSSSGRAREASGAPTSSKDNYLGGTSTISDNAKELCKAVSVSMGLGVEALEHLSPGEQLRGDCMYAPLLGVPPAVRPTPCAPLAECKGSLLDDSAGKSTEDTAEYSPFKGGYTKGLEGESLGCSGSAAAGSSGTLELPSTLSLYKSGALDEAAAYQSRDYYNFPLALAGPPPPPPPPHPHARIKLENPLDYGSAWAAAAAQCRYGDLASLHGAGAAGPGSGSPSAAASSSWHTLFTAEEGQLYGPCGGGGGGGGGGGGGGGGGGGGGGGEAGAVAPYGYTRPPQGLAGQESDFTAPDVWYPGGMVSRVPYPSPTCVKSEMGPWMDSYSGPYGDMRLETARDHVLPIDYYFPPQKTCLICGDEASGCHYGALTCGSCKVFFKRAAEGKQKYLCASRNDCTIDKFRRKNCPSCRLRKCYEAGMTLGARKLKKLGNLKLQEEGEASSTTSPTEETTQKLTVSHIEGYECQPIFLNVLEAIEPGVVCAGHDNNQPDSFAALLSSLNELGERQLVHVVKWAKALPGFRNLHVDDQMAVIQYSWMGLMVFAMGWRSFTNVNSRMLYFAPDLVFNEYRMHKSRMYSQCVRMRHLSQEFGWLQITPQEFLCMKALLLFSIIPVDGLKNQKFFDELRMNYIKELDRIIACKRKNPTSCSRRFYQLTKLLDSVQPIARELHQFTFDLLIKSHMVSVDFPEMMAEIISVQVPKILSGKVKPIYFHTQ
# Description: Detection principles: A reporter system for detecting the activities of firefly luciferase. To quantitatively detect the interaction between transcription factors and target promoters, the fluorescent intensities are detected to quantitatively evaluate the activities of firefly luciferase.
# Methods: PC3 cells (no endogenous AR) treated with DMEM media supplemented with 5% CSS for 48 hours. Then, the PC3 cells (1.2×10^4/well) were seeded into 96-well plates. After 16 hours, the PC3 cells were transfected with 20 ng/well plasmid and incubated for 20 min at room temperature. After 1 day incubation, the media in the wells was replaced, followed by the addition of various concentrations of compounds. After 48 hours, the culture medium was discarded and the cells were washed with 100 μL PBS, followed by addition of 30 μL 1×PLB and the 96-well plates was shaken on a shaker for 20 min to ensure complete lysis of the cells. Then, the cell lysis supernatant (20 μL/well) was transferred to a white opaque 96-well, and addition of 30 μL Luciferase Assay Reagent II to each well. Then, the fluorescent intensities of firefly luciferase were evaluated. Afterwards, 30 μL Stop&Glo Reagant was added to the wells, and the fluorescent intensities of […] evaluated.
# AR = biological target: T2, AR (Homo sapiens, UniProt P10275, T878A); assay: AR transcriptional activity, LNCaP-ARR2PB-eGFP reporter cells; type: cell-based; conditions: LNCaP-ARR2PB-eGFP cells, 5 nM DHT, 72 hours; read-out: IC50 AR transcriptional activities
# T2 construct: into the androgen-dependent PCa cells (LNCaP); endogenous in cells; host or cells: LNCaP-ARR2PB-eGFP
# T2 sequence (P10275 1-920 T878A): T1 sequence (P10275 1-920) with T878A
# Text: Detection principles: We conducted a stable transfection of promoter ARR2PB known for its strong AR responsiveness, into the androgen-dependent PCa cells (LNCaP). The expression of enhanced green fluorescent protein (eGFP) is depending on the degree of activation of AR. Therefore, LNCaP-ARR2PB-eGFP cell line could quantitatively determine the AR antagonistic activities of the compounds by evaluating the expression of eGFP.
smiles,measurement,setting,value
"CC(=O)Cc1nsc(NC(=O)c2cc(-c3cccc(C(F)(F)F)c3)oc2C)n1 [Compound A-1, 2-Methyl-N-(3-(2-oxopropyl)-1,2,4-thiadiazol-5-yl)-5-(3-(trifluoromethyl)phenyl)furan-3-carboxamide]",IC50,FL-AR^WT,1840 nM
same,IC50,AR,30 nM
